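Exposure lasted 48 hours, with cells grown in 96-well plates and compounds tested at five concentrations. Abbreviation: GI50, concentration required for 50% inhibition of growth. TGI is the concentration that stops growth completely.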 Bounds are passed on as bounds.

For 13 compounds, GI50 and TGI results are on record in PubChem BioAssay (NCI).

Among the test systems are A549 NSCLC; HS 578T breast; UACC-257 melanoma; HOP-92 NSCLC; DU-145 prostate; SF-539 CNS; HCC-2998 colon; SK-MEL-5 melanoma; OVCAR-4 ovarian; HOP-62 NSCLC.
Assay in all cases: NCI anticancer screen, dose series, 48 h

As for `COc1ccc2c(CN3CCCC[C@H]3O)cc3cc4c(cc3c2c1)OCO4`, the GI50 in the test on A549 NSCLC is 0.28 µM; in the test with HS 578T breast, 0.663 µM; in the test with UACC-257 melanoma, 0.237 µM; with HOP-92 NSCLC, 0.241 µM; in the test on DU-145 prostate it was 0.475 µM; in the test on SF-539 CNS, 0.375 µM. The GI50 was 0.337 µM with HCC-2998 colon, 0.345 µM in the test with SK-MEL-5 melanoma, 0.393 µM in the test on OVCAR-4 ovarian and 0.541 µM in the test on HOP-62 NSCLC. The TGI amounted to 2.82 µM with A549 NSCLC; 2.94 µM in the test on HS 578T breast; 0.737 µM with UACC-257 melanoma; 2.4 µM in the test on HOP-92 NSCLC; 7.24 µM in the test with DU-145 prostate; 1.83 µM in the test with SF-539 CNS. Further, the TGI in the test with HCC-2998 colon is 1.48 µM; with SK-MEL-5 melanoma, 1.39 µM; in the test with OVCAR-4 ovarian, 2.99 µM; with HOP-62 NSCLC, 3.52 µM.

On to `CN(Cc1cnc2nc(N)nc(N)c2n1)c1c(Cl)cc(C(=O)NC(CCC(=O)O)C(=O)O)cc1Cl` (stereo not drawn), for which the GI50 is < 0.0116 µM in the test with A549 NSCLC; 8.12 µM in the test with HS 578T breast; 1.49 µM in the test with HOP-92 NSCLC; < 0.01 µM in the test on DU-145 prostate; < 0.01 µM in the test on SF-539 CNS; < 0.0148 µM in the test on HCC-2998 colon. In addition, the GI50 was 0.0483 µM in the test on SK-MEL-5 melanoma and 0.0287 µM with HOP-62 NSCLC. Besides, the TGI in the test on A549 NSCLC, in the test with HS 578T breast, in the test on UACC-257 melanoma, in the test with HOP-92 NSCLC, in the test with DU-145 prostate and with SF-539 CNS was > 100 µM in each case. Also, the TGI with HCC-2998 colon, in the test with SK-MEL-5 melanoma, in the test with OVCAR-4 ovarian and with HOP-62 NSCLC was > 100 µM in each case.

For `CC(=O)/C(=N\N=C(N)N)c1ccccc1`, the TGI in the test on A549 NSCLC, with HS 578T breast, in the test with UACC-257 melanoma, in the test with HOP-92 NSCLC, with DU-145 prostate and in the test with SF-539 CNS was > 100 µM throughout. For the same compound, the TGI in the test with HCC-2998 colon, with SK-MEL-5 melanoma, with OVCAR-4 ovarian and in the test on HOP-62 NSCLC was > 100 µM each time.

In the case of `O=S1(=O)CCC2=CC(C(F)(F)F)=CC(C(F)(F)F)=CN21`, the TGI in the test with A549 NSCLC is 9.45 µM; in the test on HS 578T breast, > 43.4 µM; with UACC-257 melanoma it was 5.76 µM; in the test with HOP-92 NSCLC, 4.26 µM; in the test with DU-145 prostate, 5.46 µM; in the test on SF-539 CNS it was 3.8 µM. Further, the TGI with HCC-2998 colon came out at 3.68 µM; with SK-MEL-5 melanoma it was 3.02 µM; in the test on OVCAR-4 ovarian, 4.24 µM; in the test on HOP-62 NSCLC, 4.88 µM.

For the compound `C=C(CN1CCN(c2ccccn2)CC1)c1ccc(C(=O)Nc2ccccc2N)cc1`, the GI50 with A549 NSCLC was 2.4 µM; in the test on HS 578T breast, 1.11 µM; in the test on UACC-257 melanoma, 2.32 µM; in the test on HOP-92 NSCLC, 5.7 µM; in the test with DU-145 prostate it was 2.52 µM; in the test on SF-539 CNS, 1.5 µM. Moreover, the GI50 in the test on HCC-2998 colon was 0.664 µM; in the test with SK-MEL-5 melanoma, 0.726 µM; with OVCAR-4 ovarian, 6.35 µM; with HOP-62 NSCLC, 1.32 µM. The TGI was 37.3 µM in the test on A549 NSCLC; 6.28 µM in the test with HS 578T breast; > 50 µM in the test on UACC-257 melanoma; 23.1 µM in the test with HOP-92 NSCLC; 18.5 µM in the test with DU-145 prostate; 8.87 µM in the test on SF-539 CNS. For the same compound, the TGI with HCC-2998 colon was 1.94 µM; with SK-MEL-5 melanoma, 1.75 µM; in the test on OVCAR-4 ovarian, > 50 µM; in the test with HOP-62 NSCLC, > 50 µM.

As to `COc1ccc(C(=O)Cn2c(C(=O)c3ccc(Cl)cc3)nc(-c3ccccc3)c2-c2ccccc2)cc1`, the GI50 with A549 NSCLC was 60 µM; with HS 578T breast, 44.1 µM; in the test with UACC-257 melanoma, > 100 µM; in the test with HOP-92 NSCLC, 7.43 µM; in the test with DU-145 prostate it was > 100 µM; in the test on SF-539 CNS, 52.3 µM. For the same compound, the GI50 in the test on HCC-2998 colon was > 100 µM; with SK-MEL-5 melanoma, > 100 µM; with OVCAR-4 ovarian, 94.2 µM; with HOP-62 NSCLC, > 100 µM. Besides, the TGI in the test with A549 NSCLC is > 100 µM; with HS 578T breast, > 100 µM; in the test with UACC-257 melanoma, > 100 µM; in the test on HOP-92 NSCLC, 83.1 µM; in the test with DU-145 prostate, > 100 µM; in the test with SF-539 CNS, > 100 µM. In addition, the TGI in the test on HCC-2998 colon, in the test on SK-MEL-5 melanoma, with OVCAR-4 ovarian and in the test on HOP-62 NSCLC was > 100 µM throughout.

On to `BrCc1ccc2ccc3ccc(CBr)nc3c2n1`, for which the TGI in the test on A549 NSCLC was determined as 34.7 µM; with HS 578T breast it was 71.3 µM; with UACC-257 melanoma, 14.1 µM; in the test with HOP-92 NSCLC, 4.04 µM; in the test with DU-145 prostate it was 21.7 µM; in the test on SF-539 CNS, 11 µM. The TGI in the test with HCC-2998 colon turned out to be 8.73 µM; in the test on SK-MEL-5 melanoma, 8.16 µM; with OVCAR-4 ovarian, 12.3 µM; in the test on HOP-62 NSCLC, 21 µM.

In the case of `C=C1C(=O)O[C@@H]2C[C@@H](C)[C@@H]3C=CC(=O)[C@@]3(C)[C@@H](OC(=O)CCCC(=O)O[C@H]3[C@@H]4C(=C)C(=O)O[C@@H]4C[C@@H](C)[C@@H]4C=CC(=O)[C@]43C)[C@H]12`, the TGI in the test on A549 NSCLC amounted to 6.09 µM; in the test on HS 578T breast, 0.433 µM; in the test on UACC-257 melanoma it was 0.271 µM; in the test with HOP-92 NSCLC, 0.104 µM; with DU-145 prostate, 0.957 µM; in the test on SF-539 CNS, 0.185 µM. Further, the TGI in the test on HCC-2998 colon stood at 1.27 µM; in the test with SK-MEL-5 melanoma it was 0.293 µM; with OVCAR-4 ovarian, 0.262 µM; in the test with HOP-62 NSCLC, 2.61 µM.

In the case of `CC(C)(O)c1cc(Nc2cc(Oc3cn(C4CC4)nc3C3CCOCC3)ccn2)ccn1`, the GI50 in the test on A549 NSCLC is > 100 µM; in the test on HS 578T breast, 73.8 µM; in the test on UACC-257 melanoma, 85.1 µM; in the test with HOP-92 NSCLC, 21.3 µM; in the test on DU-145 prostate it was > 100 µM; with SF-539 CNS, > 100 µM. The GI50 is > 100 µM in the test with HCC-2998 colon, 38.7 µM in the test with SK-MEL-5 melanoma, > 100 µM in the test with OVCAR-4 ovarian and > 100 µM with HOP-62 NSCLC. In addition, the TGI in the test with A549 NSCLC, in the test with HS 578T breast, in the test on UACC-257 melanoma, in the test on HOP-92 NSCLC, in the test with DU-145 prostate and with SF-539 CNS was > 100 µM throughout. Also, the TGI in the test with HCC-2998 colon, in the test on SK-MEL-5 melanoma, in the test on OVCAR-4 ovarian and in the test on HOP-62 NSCLC was > 100 µM throughout.

Consider `COc1cc(C=NCC(=O)CSC(c2ccccc2)c2ccccc2)ccc1O`, for which the GI50 in the test on A549 NSCLC is 10.7 µM; in the test on HS 578T breast it was 0.0464 µM; in the test with UACC-257 melanoma, 5.94 µM; in the test with HOP-92 NSCLC, 10 µM; in the test with DU-145 prostate it was 12.2 µM; in the test on SF-539 CNS, 14.8 µM. Further, the GI50 was 3.6 µM in the test with HCC-2998 colon, 4.83 µM in the test with SK-MEL-5 melanoma, 5.32 µM in the test on OVCAR-4 ovarian and 14.6 µM in the test with HOP-62 NSCLC. Also, the TGI came to 26 µM in the test with A549 NSCLC; 5.52 µM with HS 578T breast; 18.7 µM with UACC-257 melanoma; 21.7 µM in the test on HOP-92 NSCLC; 37.8 µM in the test with DU-145 prostate; 29.1 µM in the test with SF-539 CNS. For the same compound, the TGI in the test with HCC-2998 colon was 16.5 µM; in the test on SK-MEL-5 melanoma it was 18.2 µM; in the test on OVCAR-4 ovarian it was 23 µM; in the test with HOP-62 NSCLC, 27.9 µM.

Regarding `CCNc1ccc2c(c1)C(=O)N(OS(C)(=O)=O)C2=O`, the TGI in the test on A549 NSCLC was > 100 µM; with HS 578T breast, > 100 µM; with UACC-257 melanoma, > 100 µM; with HOP-92 NSCLC it was > 100 µM; in the test on DU-145 prostate, > 100 µM; in the test on SF-539 CNS, 51.5 µM. Besides, the TGI in the test on HCC-2998 colon, in the test on SK-MEL-5 melanoma, in the test with OVCAR-4 ovarian and with HOP-62 NSCLC was > 100 µM throughout.

As for `O=C1C=C(NCCc2ccccc2)c2ccccc2C1=O`, the TGI is 3.79 µM with A549 NSCLC; 5.09 µM in the test on HS 578T breast; 2.93 µM in the test with UACC-257 melanoma; 29.5 µM with HOP-92 NSCLC; 3.13 µM with DU-145 prostate; 4.46 µM in the test with SF-539 CNS. Besides, the TGI stood at 4.09 µM in the test on HCC-2998 colon, 2.31 µM in the test on SK-MEL-5 melanoma, 13.4 µM with OVCAR-4 ovarian and 4.89 µM with HOP-62 NSCLC.

Turning to `CC(C)(C)OC(=O)NCCCCCCCCCCCCn1c2c(c3ccccc3c1=O)C(=O)c1ccccc1-2`, the GI50 in the test with A549 NSCLC is > 100 µM; with HS 578T breast, 11.9 µM; in the test on UACC-257 melanoma, > 100 µM; in the test with HOP-92 NSCLC, 16.8 µM; in the test with DU-145 prostate, 91.6 µM; in the test on SF-539 CNS, 20.6 µM. Also, the GI50 with HCC-2998 colon was > 100 µM; in the test with SK-MEL-5 melanoma, > 100 µM; in the test with OVCAR-4 ovarian it was > 100 µM; with HOP-62 NSCLC it was 32.7 µM. For the same compound, the TGI was > 100 µM with A549 NSCLC; 63.1 µM in the test on HS 578T breast; > 100 µM in the test with UACC-257 melanoma; 39.9 µM in the test with HOP-92 NSCLC; > 100 µM in the test on DU-145 prostate; 61.9 µM in the test on SF-539 CNS. Moreover, the TGI with HCC-2998 colon, in the test with SK-MEL-5 melanoma, in the test on OVCAR-4 ovarian and with HOP-62 NSCLC was > 100 µM throughout.
